Measurements: PubChem BioAssay (NCI)
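Results reflect a 48-hour exposure of cells in 96-well plates to compound at five concentrations. Definition used: TGI = concentration required for complete inhibition of growth.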

Columns and labels:
Experiment in all cases: inhibition of tumour cell growth, NCI panel, 48 h
DU-145 prostate = system: DU-145 prostate
MOLT-4 leukemia = system: MOLT-4 leukemia
SNB-19 CNS = system: SNB-19 CNS
786-0 renal = system: 786-0 renal
BT-549 breast = system: BT-549 breast
SNB-75 CNS = system: SNB-75 CNS
LOX IMVI melanoma = system: LOX IMVI melanoma
IGROV1 ovarian = system: IGROV1 ovarian
UACC-257 melanoma = system: UACC-257 melanoma
U251 CNS = system: U251 CNS
CCRF-CEM leukemia = system: CCRF-CEM leukemia
NCI/ADR-RES ovarian = system: NCI/ADR-RES ovarian
NCI-H522 lung = system: NCI-H522 lung
MDA-N = system: MDA-N
UO-31 renal = system: UO-31 renal
SK-MEL-2 melanoma = system: SK-MEL-2 melanoma
ACHN renal = system: ACHN renal
MDA-MB-435 = system: MDA-MB-435
OVCAR-5 ovarian = system: OVCAR-5 ovarian
RXF 393 renal = system: RXF 393 renal
A498 renal = system: A498 renal
SW-620 colon = system: SW-620 colon
HL-60(TB) leukemia = system: HL-60(TB) leukemia
TK-10 renal = system: TK-10 renal
UACC-62 melanoma = system: UACC-62 melanoma
HT29 colon = system: HT29 colon
HCT-116 colon = system: HCT-116 colon
OVCAR-8 ovarian = system: OVCAR-8 ovarian
RPMI-8226 leukemia = system: RPMI-8226 leukemia
HOP-92 NSCLC = system: HOP-92 NSCLC
MALME-3M melanoma = system: MALME-3M melanoma
HCT-15 colon = system: HCT-15 colon
EKVX NSCLC = system: EKVX NSCLC
SF-295 CNS = system: SF-295 CNS
K-562 leukemia = system: K-562 leukemia
NCI-H23 lung = system: NCI-H23 lung
HS 578T breast = system: HS 578T breast
COLO 205 colon = system: COLO 205 colon
NCI-H460 lung = system: NCI-H460 lung
HOP-62 NSCLC = system: HOP-62 NSCLC
MDA-MB-231 breast = system: MDA-MB-231 breast
KM12 colon = system: KM12 colon
PC-3 prostate = system: PC-3 prostate
OVCAR-4 ovarian = system: OVCAR-4 ovarian
SK-MEL-5 melanoma = system: SK-MEL-5 melanoma
CAKI-1 renal = system: CAKI-1 renal
NCI-H226 lung = system: NCI-H226 lung
HCC-2998 colon = system: HCC-2998 colon
SR leukemia = system: SR leukemia
SN12C renal = system: SN12C renal
SK-MEL-28 melanoma = system: SK-MEL-28 melanoma
SK-OV-3 ovarian = system: SK-OV-3 ovarian
OVCAR-3 ovarian = system: OVCAR-3 ovarian
SF-268 CNS = system: SF-268 CNS
T-47D breast = system: T-47D breast
SF-539 CNS = system: SF-539 CNS
MCF7 breast = system: MCF7 breast
M14 melanoma = system: M14 melanoma
A549 NSCLC = system: A549 NSCLC

COC(=O)C1Cc2c(C)cccc2C1=O (centres undefined)
TGI (DU-145 prostate): > 100 µM | TGI (MOLT-4 leukemia): > 100 µM | TGI (SNB-19 CNS): > 100 µM | TGI (786-0 renal): > 100 µM | TGI (BT-549 breast): > 100 µM | TGI (SNB-75 CNS): > 100 µM | TGI (LOX IMVI melanoma): > 100 µM | TGI (IGROV1 ovarian): > 100 µM | TGI (UACC-257 melanoma): > 100 µM | TGI (U251 CNS): > 100 µM | TGI (CCRF-CEM leukemia): > 100 µM | TGI (NCI/ADR-RES ovarian): > 100 µM | TGI (NCI-H522 lung): > 100 µM | TGI (MDA-N): > 100 µM | TGI (UO-31 renal): > 100 µM | TGI (SK-MEL-2 melanoma): > 100 µM | TGI (ACHN renal): > 100 µM | TGI (MDA-MB-435): > 100 µM | TGI (OVCAR-5 ovarian): > 100 µM | TGI (RXF 393 renal): > 100 µM | TGI (A498 renal): > 100 µM | TGI (SW-620 colon): > 100 µM | TGI (HL-60(TB) leukemia): 77.8 µM | TGI (TK-10 renal): > 100 µM | TGI (UACC-62 melanoma): > 100 µM | TGI (HT29 colon): > 100 µM | TGI (HCT-116 colon): > 100 µM | TGI (OVCAR-8 ovarian): > 100 µM | TGI (RPMI-8226 leukemia): > 100 µM | TGI (HOP-92 NSCLC): > 100 µM | TGI (MALME-3M melanoma): > 100 µM | TGI (HCT-15 colon): > 100 µM | TGI (EKVX NSCLC): > 100 µM | TGI (SF-295 CNS): > 100 µM | TGI (K-562 leukemia): > 100 µM | TGI (NCI-H23 lung): > 100 µM | TGI (HS 578T breast): > 100 µM | TGI (COLO 205 colon): > 100 µM | TGI (NCI-H460 lung): > 100 µM | TGI (HOP-62 NSCLC): > 100 µM | TGI (MDA-MB-231 breast): > 100 µM | TGI (KM12 colon): > 100 µM | TGI (PC-3 prostate): > 100 µM | TGI (OVCAR-4 ovarian): > 100 µM | TGI (SK-MEL-5 melanoma): > 100 µM | TGI (CAKI-1 renal): > 100 µM | TGI (NCI-H226 lung): > 100 µM | TGI (HCC-2998 colon): > 100 µM | TGI (SR leukemia): > 100 µM | TGI (SN12C renal): > 100 µM | TGI (SK-MEL-28 melanoma): > 100 µM | TGI (SK-OV-3 ovarian): > 100 µM | TGI (OVCAR-3 ovarian): > 100 µM | TGI (SF-268 CNS): > 100 µM | TGI (T-47D breast): > 100 µM | TGI (SF-539 CNS): > 100 µM | TGI (MCF7 breast): > 100 µM | TGI (M14 melanoma): > 100 µM | TGI (A549 NSCLC): > 100 µM

COc1ccc2c(O)c3[n+](cc2c1OC)CCc1cc2c(cc1-3)OCO2
TGI (DU-145 prostate): > 100 µM | TGI (MOLT-4 leukemia): > 100 µM | TGI (SNB-19 CNS): > 100 µM | TGI (BT-549 breast): > 100 µM | TGI (SNB-75 CNS): > 100 µM | TGI (LOX IMVI melanoma): > 100 µM | TGI (IGROV1 ovarian): > 100 µM | TGI (UACC-257 melanoma): > 100 µM | TGI (U251 CNS): > 100 µM | TGI (CCRF-CEM leukemia): > 100 µM | TGI (NCI/ADR-RES ovarian): > 100 µM | TGI (NCI-H522 lung): 46 µM | TGI (MDA-N): > 100 µM | TGI (SK-MEL-2 melanoma): > 100 µM | TGI (ACHN renal): > 100 µM | TGI (MDA-MB-435): 69.3 µM | TGI (OVCAR-5 ovarian): > 100 µM | TGI (RXF 393 renal): 85.7 µM | TGI (A498 renal): > 100 µM | TGI (SW-620 colon): > 100 µM | TGI (HL-60(TB) leukemia): > 100 µM | TGI (TK-10 renal): > 100 µM | TGI (UACC-62 melanoma): > 100 µM | TGI (HT29 colon): > 100 µM | TGI (HCT-116 colon): > 100 µM | TGI (OVCAR-8 ovarian): > 100 µM | TGI (RPMI-8226 leukemia): > 100 µM | TGI (HOP-92 NSCLC): > 100 µM | TGI (HCT-15 colon): > 100 µM | TGI (EKVX NSCLC): > 100 µM | TGI (SF-295 CNS): > 100 µM | TGI (K-562 leukemia): > 100 µM | TGI (NCI-H23 lung): > 100 µM | TGI (HS 578T breast): > 100 µM | TGI (COLO 205 colon): > 100 µM | TGI (NCI-H460 lung): > 100 µM | TGI (HOP-62 NSCLC): > 100 µM | TGI (MDA-MB-231 breast): > 100 µM | TGI (KM12 colon): > 100 µM | TGI (PC-3 prostate): > 100 µM | TGI (OVCAR-4 ovarian): > 100 µM | TGI (SK-MEL-5 melanoma): > 100 µM | TGI (CAKI-1 renal): > 100 µM | TGI (NCI-H226 lung): > 100 µM | TGI (HCC-2998 colon): > 100 µM | TGI (SR leukemia): > 100 µM | TGI (SN12C renal): > 100 µM | TGI (SK-OV-3 ovarian): > 100 µM | TGI (OVCAR-3 ovarian): > 100 µM | TGI (SF-268 CNS): > 100 µM | TGI (T-47D breast): > 100 µM | TGI (SF-539 CNS): > 100 µM | TGI (MCF7 breast): > 100 µM | TGI (M14 melanoma): > 100 µM | TGI (A549 NSCLC): > 100 µM
